Data as given in the NIST ThermoML archive (doi:10.1021/je060472e).
Values joined by “and” are separate entries in the source; they are usually repeats but may differ in a detail not shown here. Equal values may be shown once.

Legend:
[1] = Molar enthalpy of transition or fusion; settings: Crystal; DSC
[2] = for vapor or sublimation pressure: Closed cell (Static) method; for Normal melting temperature: DTA

COC(=O)c1ccncc1 [methyl 4-pyridinecarboxylate]
Settings | Molar enthalpy of transition or fusion [kcal/mol]
[1] | 3.49

[2], Liquid
Settings | vapor or sublimation pressure
273.26 K | 0.002588 kPa
275.74 K | 0.003349 kPa and 0.003323 kPa
278.22 K | 0.004243 kPa
278.23 K | 0.004253 kPa
280.71 K | 0.005373 kPa and 0.005383 kPa
283.19 K | 0.006753 kPa
285.66 K | 0.008443 kPa
288.16 K | 0.01054 kPa
290.65 K | 0.01308 kPa
293.15 K | 0.01615 kPa
293.16 K | 0.01617 kPa
295.65 K | 0.0199 kPa
298.13 K | 0.02427 kPa
298.14 K | 0.02428 kPa
300.63 K | 0.0296 kPa and 0.02961 kPa
303.12 K | 0.03595 kPa
303.13 K | 0.03597 kPa
305.62 K | 0.04347 kPa
305.63 K | 0.04348 kPa
308.09 K | 0.05219 kPa
310.59 K | 0.06266 kPa
310.6 K | 0.0627 kPa
313.07 K | 0.07495 kPa and 0.0749 kPa
315.54 K | 0.08924 kPa
315.56 K | 0.08934 kPa
318.03 K | 0.1062 kPa
320.52 K | 0.1256 kPa

Settings | Normal melting temperature [°C]
[2], Crystal | 10.2

COC(=O)c1cccnc1 [3-pyridinecarboxylic acid methyl ester]
Settings | Molar enthalpy of transition or fusion [kcal/mol]
[1] | 4.61

vapor or sublimation pressure, [2]
Settings | Crystal | Liquid
273.23 K | 0.000651 kPa and 0.000658 kPa | –
278.2 K | 0.001228 kPa and 0.001214 kPa | –
283.18 K | 0.002269 kPa | –
283.19 K | 0.002282 kPa and 0.002271 kPa | –
288.16 K | 0.00406 kPa and 0.004076 kPa | –
293.16 K | 0.007304 kPa and 0.007318 kPa | –
298.14 K | 0.0127 kPa | 0.01819 kPa
298.15 K | – | 0.01819 kPa
298.16 K | 0.01269 kPa | –
303.13 K | – | 0.02715 kPa and 0.02712 kPa
303.14 K | 0.0216 kPa and 0.02159 kPa | –
305.12 K | – | 0.03186 kPa
305.13 K | – | 0.03188 kPa
307.11 K | – | 0.03712 kPa and 0.03709 kPa
308.1 K | 0.03586 kPa | –
308.11 K | 0.03587 kPa | –
309.1 K | – | 0.0431 kPa and 0.04306 kPa
310.6 K | 0.04566 kPa | –
310.61 K | 0.04595 kPa and 0.04557 kPa | –
311.07 K | – | 0.0502 kPa
311.08 K | – | 0.05006 kPa
313.07 K | – | 0.05817 kPa
313.08 K | – | 0.05817 kPa
315.06 K | – | 0.06722 kPa
315.07 K | – | 0.06704 kPa
317.04 K | – | 0.07707 kPa
317.05 K | – | 0.07715 kPa
318.08 K | – | 0.08317 kPa
318.11 K | – | 0.0833 kPa
319.09 K | – | 0.08886 kPa
321.08 K | – | 0.102 kPa and 0.103 kPa
323.09 K | – | 0.1177 kPa
324.06 K | – | 0.1247 kPa and 0.1246 kPa

Settings | Normal melting temperature [°C]
[2], Crystal | 39.5

COC(=O)c1ccccn1 [methyl 2-pyridinecarboxylate]
Settings | Molar enthalpy of transition or fusion [kcal/mol]
[1] | 4.02

vapor or sublimation pressure, [2]
Settings | Crystal | Liquid
273.21 K | – | 0.00051 kPa and 0.000505 kPa
278.18 K | – | 0.00086 kPa and 0.000856 kPa
278.2 K | 0.000582 kPa and 0.00058 kPa | –
280.67 K | 0.000793 kPa | –
280.68 K | 0.000794 kPa | –
283.15 K | 0.001087 kPa | 0.001403 kPa
283.16 K | 0.001086 kPa | 0.001399 kPa
285.65 K | 0.001476 kPa and 0.001472 kPa | –
288.13 K | – | 0.002242 kPa
288.14 K | 0.001988 kPa | 0.002246 kPa
288.15 K | 0.001989 kPa | –
290.63 K | 0.002681 kPa | –
290.65 K | 0.002682 kPa | –
293.12 K | – | 0.00357 kPa
293.13 K | – | 0.003566 kPa
298.15 K | – | 0.005628 kPa and 0.005601 kPa
303.15 K | – | 0.008522 kPa and 0.008506 kPa
308.08 K | – | 0.0128 kPa
308.11 K | – | 0.01279 kPa
313.12 K | – | 0.01919 kPa
313.13 K | – | 0.01916 kPa
318.09 K | – | 0.02771 kPa and 0.02763 kPa
323.05 K | – | 0.03968 kPa
328.04 K | – | 0.05628 kPa and 0.05632 kPa
333.01 K | – | 0.0787 kPa
333.02 K | – | 0.07876 kPa
337.99 K | – | 0.1088 kPa
340.47 K | – | 0.127 kPa

Settings | Normal melting temperature [°C]
[2], Crystal | 16.1
